Data taken from patent publication US20080171710A1, “The Redox/Fyn/c-Cbl Pathway” (priority 2007, published 2008).

How the values were obtained:
PDGFRα [1] = type: cell-based, rat; settings: for effect on MeHg-induced reductions in levels of PDGFRα: together with MeHg; for effect on Pb- and paraquat-induced reductions in levels of PDGFRα: together with Pb (1 μM) or paraquat (5 μM)
c-Cbl [2] = type: cell-based, rat
Description: (§1) For the co-immunoprecipitation assay, anti-c-Cbl monoclonal antibody (BD PharMingen) or anti-PDGFRα polyclonal antibody (Santa Cruz Biotechnology) was added to the pre-cleared cell lysates (250 μg of total protein), and the mixtures were gently rocked for 2 h at 4° C. A total of 30 μl of protein A/G agarose was then added to the mixture followed by rotating at 4° C. overnight. The protein A/G agarose was then spun down and washed thoroughly three times. The precipitates were resolved on an 8% SDS-PAGE gel and then were subjected to Western blot analysis using an anti-p-Tyr (for c-Cbl phosphorylation assay) or ubiquitin (for PDGFR ubiquitylation assay) antibody (Santa Cruz Biotechnology).

Erk1/2 = type: cell-based, rat
Description: (§2) Cells were deprived of PDGF-AA for 5 h before re-exposure to PDGF-AA (10 ng/ml) for 1 h for Western blot or 6 h for luciferase assays of pathway activation. Transient transfection was performed using Fugene6 (Roche, Basel, Switzerland ) transfection solution according to the manufacturer's protocol. For the luciferase assay, cells seeded in 12-well plates were transfected with a reporter plasmid SRE-Luc(firefly) or NF-κB-Luc(firefly) (BD-Clontech, Palo Alto, Calif., United States) and an internal control plasmid pRLSV40-LUC. Analyses of luciferase activity were performed according to the protocol of the Dual Luciferase Assay System (Promega, Madison, Wis., United States), which uses an internal control of Renilla luciferase for quantification, and relative light units were measured using a luminometer.
(§3) Anti-phosphorylated Erk monoclonal, anti-Erk monoclonal, anti-TrkC polyclonal anti-Fyn polyclonal, anti-EGFR polyclonal, anti-c-Met polyclonal, anti-phospho-tyrosine monoclonal, and anti-PDGFRα polyclonal antibodies were obtained from Santa Cruz Biotechnology (Santa Cruz, Calif., United States). Anti-c-Cbl monoclonal antibody was obtained from BD PharMingen (San Diego, Calif., United States). Anti-phosphorylated Akt monoclonal and anti-Akt polyclonal antibodies were obtained from Cell Signaling Technology (Beverly, Mass., United States). Anti-phosphorylated PDGPRα polyclonal antibody was obtained from Biosource (Carlsbad, Calif., United States). The cell culture samples were collected and lysed in RAPI buffer, whereas dissected tissue samples were sonicated in RAPI buffer. Samples were resolved on SDS-PAGE gels and transferred to PVDF membranes (PerkinElmer Life Science. Wellesley, Mass., United States), After being blocked in 5% skim milk in PBS containing 0.1% Tween 20, membranes were incubated with a primary antibody, followed by incubation with an HRP-conjugated secondary antibody (Santa Cruz Biotechnology). Membranes were visualized using Western Blotting Luminol Reagent (Santa Cruz Biotechnology). All analyses of signaling pathway components were conducted in the presence of ligand for the receptor pathway under analysis (either PDGF-AA for PDGFRα, NT-3 or TrkC, HGF for c-Met, or EGF for EGFR).

O-2A/OPCs [3] = experiment: In vitro BrdU incorporation assay; type: cell-based, rat; settings: with TMX, 2 days
Description: Cell proliferation was assessed by bromodeoxyuridine (BrdU) incorporation and by using the mouse anti-BrdU mAb IgGl (1:100; Sigma) to label dividing cells. Stained cells on cover slips were rinsed two times in 1×PBS, counterstained with 4′6-diamidino-2-phenylindole (DAPI; Molecular Probes, Eugene, Oreg., United States) and mounted on glass slides with Fluoromount (Molecular Probes). Staining against surface proteins was performed on cultures of living cells or on cells fixed with 2% paraformaldehyde. Staining with intracellular antibodies was performed by permeabilizing cells with ice-cold methanol for 4 min or by using 0.5% Triton for 15 mm on 2% parafomaldhyde-fixed cells. Antibody binding was detected with appropriate fluorescent dye-conjugated secondary antibodies at 10 μg/ml (Southern Biotech, Birmingham, Ala., United States) or Alexa Fluor-coupled antibodies at a concentration of 1 μg/ml (Molecular Probes), applied for 20 min. Anti-BrdU monoclonal antibody was obtained from Sigma.

O-2A/OPCs [4] = experiment: Clonal analysis of division and differentiation; type: cell-based, rat; settings: co-exposure with MeHg; 1 mM NAC or PP1
Description: O-2A/OPCs purified from P7 rat optic nerve were plated in. poly-L-lysine-coated 25-cm^2 flasks at clonal density with DMBM medium in the presence of 10-ng/ml PDGF as previously described. After 24-h recovery, cells were treated with different toxicants, each for 3 d, until visual inspection and immunostaining was performed. NAC was added 1 h before exposure to other toxicants for NAC pretreatment, and NAC co-exists throughout the culture period. The numbers of O-2A/OPCs and oligodendrocytes in each clone were determined by counting under fluorescent microscope. […] Experiments were performed in triplicate in at least two independent experiments.

cancer cells = experiment: Cancer cell viability (MTT assays), FIG. 22; type: cell-based; settings: TMX 1-50 μM, 48 hours
PDGFRα [5] = experiment: PDGFR ubiquitylation (immunoprecipitation assay); type: cell-based, rat; settings: co-exposure with MeHg
Description: as §1

PDGFRα [6] = experiment: PDGFRα phosphorylation (Western blot, anti-PDGFRα(pY742)); type: cell-based, rat; settings: co-exposure with MeHg
Text: The cells were then collected and lysed for Western blotting. […] Cells were lysed for Western blot analysis using anti-PDGFRα(pY742) antibody. The membranes were de-probed and then re-probed with antibody against total PDGFRα and anti-β-tubulin antibody. […]
as §3

MDA-MB-231 cell = MDA-MB-231 cell division by BrdU incorporation; type: cell-based; settings: NAC 1 mM or PP1 200 nM with 20 μM tamoxifen, 48 hours
Description: It has been reported that c-Cbl induced down-regulation of EGFR is disabled in cancer cells (Hirsch DS, Shen. Y, Wu WJ, (2006) Cancer Res. Apr 1;66(7):3523-30). Thus, growth and motility inhibition of breast cancer cells by EGFR degradation is correlated with inaetivation of Cdc42. […] Cells were cultured in phenol red-free growth media and exposed to TMX (0, 1 μM, 10 μM, 20 μM and 50 μM) for 48 hours, with or without 1 mM NAC. In FIG. 22C. MDA-MB-231 cell division was analyzed by BrdU incorporation analysis. […] Percentage of Brdu+ cells from DAPI+ cells was determined in each sample.

Fyn [7] = biological target: T1, Fyn (Rattus norvegicus, UniProt Q62844); type: cell-based
T1 construct: 250 μg of total cell lysates were immunoprecipitated with anti-Fyn antibody; endogenous in cells; host or cells: primary rat O-2A/OPCs
T1 sequence (Q62844 whole entry): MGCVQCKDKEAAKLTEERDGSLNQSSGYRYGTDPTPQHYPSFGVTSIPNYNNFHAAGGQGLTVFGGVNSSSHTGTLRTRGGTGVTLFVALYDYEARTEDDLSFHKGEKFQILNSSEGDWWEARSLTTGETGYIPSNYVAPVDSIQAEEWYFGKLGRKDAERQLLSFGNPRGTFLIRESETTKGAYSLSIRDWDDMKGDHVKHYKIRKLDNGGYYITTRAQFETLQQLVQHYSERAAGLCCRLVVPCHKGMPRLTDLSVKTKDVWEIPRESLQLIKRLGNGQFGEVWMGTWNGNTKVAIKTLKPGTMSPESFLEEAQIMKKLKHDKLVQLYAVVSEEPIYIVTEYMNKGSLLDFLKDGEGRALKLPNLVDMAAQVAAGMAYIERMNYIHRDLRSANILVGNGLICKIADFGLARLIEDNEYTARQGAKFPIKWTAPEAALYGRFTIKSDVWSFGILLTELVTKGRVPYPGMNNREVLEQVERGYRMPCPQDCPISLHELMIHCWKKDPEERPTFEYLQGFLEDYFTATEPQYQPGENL
Description: Fyn kinase activity was quantified using the Universal Tyrosine Kinase Assay Kit (Takara, Madison, Wis., United States). O-2A/OPCs exposed to different treatments were solubilized with an equal volume of the extraction buffer provided with the kit for 15 min, and the resulting lysates were centrifuged at 13,000×g for 15 min at 4° C.; 250 μg of total cell lysates were immunoprecipitated with anti-Fyn antibody (Santa Cruz Biotechnology). Following immunoprecipitation, Fyn immune complexes were washed four times with extraction buffer, and then Fyn kinase activities of each sample were assayed using the kit according to the manufacturer's instructions.

O-2A/OPCs [8] = experiment: MTT+ cells in EtOH-exposed O-2A/OPCs; type: cell-based, rat; settings: cells infected with empty virus; 0.5% EtOH, 72 hrs
Description: Twenty-four hr after transfection, medium was changed into DMEM/F12(SATO-) supplemented with 10 ng/ml PDGF-AA. Virus supernatant was collected forty-eight hr post-transfection, filtered through 0.45 um filter to remove non-adherent cells and cellular debris, frozen in small aliquots on dry ice, and stored at −80° C. Twenty-four hr prior to infection with either DN-c-Cbl virus or backbone virus, O-2A cells were seeded. The following day, the culture media was aspirated and replaced with virus supernatant diluted 1:1 in the O-2A growth media. Media was then changed into O-2. A growth media after eight hr or overnight. Twenty-four hr after infection, the cells were collected by trypsinization and reseeded in the selective media (growth media+200 ng/ml puromycin). By the next day, all non-infected cells were floating and presumably dead or dying. The infected cells were allowed to proliferate for two days, and then collected and re-seeded for these experiments.

EGFR = type: cell-based, rat
Text: as §3

TrkC = type: cell-based, rat
Text: as §3

c-Met = type: cell-based, rat
Text: as §3

Akt = type: cell-based, rat
Description: as §2, §3

Fyn [9] = type: cell-based, rat; settings: EtOH exposure 30 min
c-Cbl [10] = experiment: c-Cbl protein level after RNAi (Western blot); type: cell-based, rat; settings: expression of RNAi construct
Text: (§4) Anti-phosphorylated Erk monoclonal, anti-Erk monoclonal, anti-TrkC polyclonal anti-Fyn polyclonal, anti-EGFR polyclonal, anti-c-Met polyclonal, anti-phospho-tyrosine monoclonal, and anti-PDGFRα polyclonal antibodies were obtained from Santa Cruz Biotechnology (Santa Cruz, Calif., United States). Anti-c-Cbl monoclonal antibody was obtained from BD PharMingen (San Diego, Calif., United States). Anti-phosphorylated Akt monoclonal and anti-Akt polyclonal antibodies were obtained from Cell Signaling Technology (Beverly, Mass., United States). Anti-phosphorylated PDGPRα polyclonal antibody was obtained from Biosource (Carlsbad, Calif., United States). The cell culture samples were collected and lysed in RAPI buffer, whereas dissected tissue samples were sonicated in RAPI buffer. […]
(§5) siRNA target sites were selected by scanning the cDNA sequence for AA dinucleotides via siRNA target finder (Ambion, Austin, Tex., United States). Those 19-nucleotide segments that start with G immediately downstream of AA were recorded and then analyzed by BLAST search to eliminate any sequences with significant similarity to other genes. […]

Fyn [11] = experiment: Fyn protein level after RNAi (Western blot); type: cell-based, rat; settings: expression of RNAi construct
Text: as §4, §5

[12] = NAC 1 mM, PP1 100 nM or ICI 182,780 200 nM with TMX

Cc1ccc(-c2nn(C(C)(C)C)c3ncnc(N)c23)cc1 [PP1]
effect on TMX-induced reductions in levels of PDGFRα (PDGFRα [1]; [12]): blocked | effect on Aβ-induced reduction in PDGFRα levels (PDGFRα [1]; co-exposure with Aβ): blocked | effect on MeHg-induced reductions in levels of PDGFRα (PDGFRα [1]): blocked | effect on Pb- and paraquat-induced reductions in levels of PDGFRα (PDGFRα [1]): prevented | effect on TMX-induced activation of c-Cbl (c-Cbl [2]; [12]): blocked | effect on MeHg-induced c-Cbl phosphorylation (c-Cbl [2]; added 1 h before MeHg): blocked | effect on Aβ-induced increase in phosphorylated c-Cbl (c-Cbl [2]; co-exposure with Aβ): blocked | effect on Aβ(1-42) suppression of PDGF-mediated Erk1/2 phosphorylation (Erk1/2; co-exposure with Aβ(1-42)): blocked | effect on MeHg-associated suppression of Erk1/2 phosphorylation (Erk1/2; co-treatment with MeHg): blocked | effect on TMX effect on cell proliferation (O-2A/OPCs [3]): blocked | effect on MeHg-induced suppression of cell division at the clonal level (O-2A/OPCs [4]): blocked | effect on TMX effects on cancer cells (cancer cells): not blocked | levels of ubiquitylated PDGFRα in MeHg-treated cells (PDGFRα [5]): marked reduction | effect on MeHg-induced suppression of PDGFRα phosphorylation (PDGFRα [6]): protected | rescue from tamoxifen effect on cell division (MDA-MB-231 cell): did not result in any rescue effect | effect on TMX-induced activation of Fyn (Fyn [7]; [12]): blocked | effect on MeHg-induced Fyn activation (Fyn [7]; added 1 h before MeHg): blocked | effect on Pb- and paraquat-induced Fyn activation (Fyn [7]; added 1 h before Pb or paraquat): prevented

CCO [EtOH, ethanol]
decrease in the proportion of cells that were MTT+ (O-2A/OPCs [8]): ~25% | levels of PDGFRα (PDGFRα [1]): decreased levels | levels of EGFR (EGFR): decreased levels | levels of TrkC (TrkC): unaltered | levels of c-Met (c-Met): decreased levels | c-Cbl phosphorylation (c-Cbl [2]): caused c-Cbl phosphorylation | PDGF-induced phosphorylation of Akt (Akt): suppression | PDGF-induced phosphorylation of Erk1/2 (Erk1/2): suppression | Fyn phosphorylation (Fyn [9]): caused Fyn phosphorylation

B1: c-Cbl RNAi: c-Cbl siRNA construct, SEQ ID NO: 3 and 4 (nucleic acid)
chain 1: GTGCATCCCATCAGTTCTGTTCAAGAGACAGAACTGATGGGATGCACTTTTTT
chain 2: AATTAAAAAAGTGCATCCCATCAGTTCTGTCTCTTGAACAGAACTGATGGGATGCACGGCC
modifications: expressed or natural sequence
effect on MeHg-induced reductions in levels of PDGFRα (PDGFRα [1]): protected | effect on Pb- and paraquat-induced reductions in levels of PDGFRα (PDGFRα [1]): prevented | levels of c-Cbl protein (c-Cbl [10]): caused a reduction

B2: Fyn-Scr-RNAi: scrambled negative control for Fyn RNAi, SEQ ID NO: 5 and 6 (nucleic acid)
chain 1: CCCGGGTTTCAATATATTTCTCAAGAGAAAATATATTGAAACCCGGGTTTTTT
chain 2: AATTAAAAAACCCGGGTTTCAATATATTTTCTCTTGAGAAATATATTGAAACCCGGGGGCC
effect on MeHg-induced reductions in levels of PDGFRα (PDGFRα [1]): not | levels of Fyn protein (Fyn [11]): had no effect

B3: Fyn-RNAi: Fyn-specific siRNA construct, SEQ ID NO: 1 and 2 (nucleic acid)
chain 1: GTTTGCTCGACTTCTTAAATTCAAGAGATTTAAGAAGTCGAGCAAACTTTTTT
chain 2: AATTAAAAAAGTTTGCTCGACTTCTTAAATCTCTTGAATTTAAGAAGTCGAGCAAACGGCC
modifications: expressed or natural sequence
effect on MeHg-induced reductions in levels of PDGFRα (PDGFRα [1]): protected | effect on Pb- and paraquat-induced reductions in levels of PDGFRα (PDGFRα [1]): prevented | levels of Fyn protein (Fyn [11]): caused a reduction | levels of c-Cbl protein (c-Cbl [10]): had no effects
